According to patent US20250255981A1, “IMMUNOMODULATORY ANTIBODY-DRUG CONJUGATES” (Seagen Inc., priority 2022, published 2025):

Tests used:
[1] = test system: CT26 cancer cells; test: In vivo anti-tumor activity, CT26 tumor model; set-up: species or system mouse; conditions: CT26, q7dx3
Method: CT26 cancer cells (ATCC) were cultured in RPMI 1640 modified with 1 mM Sodium Pyruvate, 10 mM HEPES, 2.8 mL 45% Glucose (1.25 g) and supplemented with 10% fetal bovine serum and 1% Pen/Strep/Glutamine. CT26 cancer cells were implanted (0.5*10^6 cells in 200 uL serum-free RPMI 1640) subcutaneously into Balb/c mice.

[2] = test system: wild type (WT) murine bone marrow-derived macrophages; test: Bone marrow-derived macrophage assay, wild type; type: cell-based, mouse; conditions: 24 hours
Method: Potency of the compounds described herein was evaluated using mouse bone-marrow derived macrophages cultured from wild type (C57BL/6J, the Jackson Laboratory #000664) or STING-deficient (C57BL/6J-Sting1^gt/J, the Jackson Laboratory #017537) mice. Briefly, mouse bone marrow cells were cultured for 7-10 days in RPMI-1640 (Gibco) with 10% heat-inactivated fetal bovine serum, Pen-Strep (100 U/mL-100 […], Gibco), HEPES (10 mM, Gibco), sodium pyruvate (1 mM, Gibco), GlutaMAX (1×, Gibco), beta-mercaptoethanol ([…], Gibco) and 20-40 ng/mL murine M-CSF (Peprotech, #315-02). Cells were plated in a 96-well flat bottom tissue culture-treated clear polystyrene plate (Corning Costar #3596) at ˜100,000 cells per well in 200 μL with the indicated concentration of the compound. The supernatant was harvested at 24 hours and cytokines were measured using a Milliplex MAP mouse cytokine/chemokine magnetic bead panel assay kit (MCYTOMAG-70k custom 11-plex kit: MCP1, MIP1α, MIP1β, TNFα, IFNγ, IL-10, IL-12p70, IL-1β, IL-6, IP10, RANTES) and analyzed using a Luminex™ MAGPIX™ Instrument System.

[3] = test system: THP1-Dual™ cells (IRF-Lucia luciferase reporter); test: THP1-Dual™ cell reporter assay; type: cell-based, human
In short: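 THP1-Dual cells (~100,000 per well) exposed to compound or ADC in supplemented RPMI-1640 with 10% FBS; supernatant taken at 24 h for compounds or 48 h for ADCs. Secreted IRF-driven Lucia luciferase measured by luminescence with QUANTI-Luc reagent.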

[4] = test system: Renca tumor-bearing mice; test: In vivo cytokine assay, Renca tumor-bearing mice; set-up: species or system mouse; RANTES in plasma / TNFa in plasma: unit not given here; conditions: for IFNγ in plasma / IL1β in plasma / IL12p70 in plasma / IL-6 in plasma / IL-10 in plasma / IP10 in plasma / MCP-1 in plasma / MIP1α in plasma / MIP1β in plasma / RANTES in plasma / TNFa in plasma: 1.48 mg/kg
Method: Cytokines were measured in mouse plasma harvested at 3, 6, 24, or 48 hours after treatment with compounds or ADCs using a Milliplex MAP mouse cytokine/chemokine magnetic bead panel assay kit (MCYTOMAG-70k custom 11-plex kit: MCP1, MIP1a, MIP1(3, TNFα, IFNγ, IL-10, IL-12p70, IL-6, IL-1β, IP10, RANTES) and analyzed using a Luminex™ MAGPIX™ Instrument System. Values that were outside of the standard curve range (<3.2 or […]) were either excluded from calculation of the mean values or, when indicated, converted to […] for calculation of the mean values.
Renca cancer cells (ATCC) were cultured in RPMI-1640 (ATCC) with 10% heat-inactivated fetal bovine serum, Pen-Strep (100 U/mL-100 μg/mL), MEM non-essential amino acids (1×), sodium pyruvate (1 mM), and L-glutamine (2 mM). Renca cancer cells were implanted (2*10^6 cells in 200 μL 25% Matrigel) subcutaneously into Balb/c female mice. In some experiments, Renca tumor cells were engineered to express the indicated murine or human target antigen.
(§1) When tumor volumes reached 100 mm^3, the mice were dosed with either compounds or ADCs by intraperitoneal or intravenous injection at the indicated dosing schedule and tumor volumes were monitored twice weekly. Compounds were formulated in 40% PEG400 in saline.
(§2) A syngeneic system was used to assess the ability of the STING agonist ADCs to induce immune responses in vivo and drive an anti-tumor immune response. The Renca system is a subcutaneous, mouse renal adenocarcinoma model. Female Balb/c mice were implanted with 2×10^6 Renca cells subcutaneously in the flank on day 0. When mean tumor size of 100 mm^3 (measured by using the formula Volume (mm^3)=0.5*Length*Width^2 where length is the longer dimension) was reached mice were randomized into treatment groups of ≥5 mice per group. Animals were then treated intraperitoneally (ADCs or compounds) or intravenously (compounds) with the indicated treatment every 7 days, for 3 doses total (or as indicated). Tumor length and width and the weight of the animals was measured throughout the study and tumor volume was calculated using the formula above. Animals were followed until the tumor volume reached ˜1000 mm^3; animals were then euthanized.

[5] = test system: Renca cancer cells; test: In vivo anti-tumor activity, Renca tumor model
Method: In some experiments, Renca tumor cells were engineered to express the indicated murine or human target antigen.
as §1, §2

[6] = test system: A2058; test: Cancer cell direct cytotoxicity assay, A2058; type: cell-based, human; conditions: 96 hours, read-out: Compound X50
Method: (§3) Cancer cells were counted and plated in 40 μL complete growth media in 384-well, white-walled tissue culture treated plates (Corning). Cell plates were incubated at 37° C. and with 5% CO2 overnight to allow the cells to equilibrate. Stock solutions containing ADCs or free drugs were serially diluted in RPMI-1640+20% fetal bovine serum (FBS). 10 μL of each concentration were then added to each cell plate in duplicate. Cells were then incubated at 37° C. and with 5% CO2 for 96 hours, upon which, the cell plates were removed from the incubator and allowed to cool to room temperature for 30 minutes prior to analysis. CellTiter-Glo® luminescent assay reagent (Promega Corporation, Madison, WI) was prepared according to Promega's protocol. 10 μL of CellTiter-Glo® were added to assay plates using a Formulatrix Tempest liquid handler (Formulatrix) and the plates were protected from light for 30 minutes at room temperature. The luminescence of the samples was measured using an EnVision Multimode plate reader (Perkin Elmer, Waltham, MA). Raw data were analyzed in Graphpad Prism (San Diego, CA) using a nonlinear, 4-parameter curve fit model [Y=Bottom+(Top-Bottom)/(1+10^((Log EC50−X)*HillSlope))]. Results are reported as X50 values, which are defined as the concentration of ADC or free drug required to reduce cell viability to 50%.

[7] = test system: L540cy; test: Cancer cell direct cytotoxicity assay, L540cy; type: cell-based, human; conditions: 96 hours, read-out: Compound X50
Method: as §3

[8] = test system: SU-DHL-4; test: Cancer cell direct cytotoxicity assay, SU-DHL-4; type: cell-based, human; conditions: 96 hours, read-out: Compound X50
Method: as §3

[9] = test system: DELBVR; test: Cancer cell direct cytotoxicity assay, DELBVR; type: cell-based, human; conditions: 96 hours, read-out: Compound X50
Method: as §3

[10] = test system: MDAMB231; test: Cancer cell direct cytotoxicity assay, MDAMB231; type: cell-based, human; conditions: 96 hours, read-out: Compound X50
Method: as §3

[11] = test system: BxPC3; test: Cancer cell direct cytotoxicity assay, BxPC3; type: cell-based, human; conditions: 96 hours, read-out: Compound X50
Method: as §3

[12] = test system: 786-O; test: Cancer cell direct cytotoxicity assay, 786-O; type: cell-based, human; conditions: 96 hours, concentration required to reduce cell viability to 50%, read-out: Compound X50
Method: as §3

[13] = test system: DEL; test: Cancer cell direct cytotoxicity assay, DEL; type: cell-based, human; conditions: 96 hours, read-out: Compound X50
Method: as §3

[14] = test system: Ls174T; test: Cancer cell direct cytotoxicity assay, Ls174T; type: cell-based, human; conditions: 96 hours, read-out: Compound X50
Method: as §3

[15] = test system: MOLM-13; test: Cancer cell direct cytotoxicity assay, MOLM-13; type: cell-based, human; conditions: 96 hours, read-out: Compound X50
Method: as §3

[16] = test system: Karpas299; test: Cancer cell direct cytotoxicity assay, Karpas299; type: cell-based, human; conditions: 96 hours, read-out: Compound X50
Method: as §3

CCn1nc(C)cc1C(=O)Nc1nc2cc(C(N)=O)cc(O)c2n1C/C=C/Cn1c(NC(=O)c2cc(C)nn2CC)nc2cc(C(N)=O)cc(OC)c21 [compound 1, (E)-1-(4-(5-carbamoyl-2-(1-ethyl-3-methyl-1H-pyrazole-5-carboxamido)-7-hydroxy-1H-benzo[d]imidazol-1-yl)but-2-en-1-yl)-2-(1-ethyl-3-methyl-1H-pyrazole-5-carboxamido)-7-methoxy-1H-benzo[d]imidazole-5-carboxamide]
tumor growth [1]: minimal tumor growth delay | cytokine production [2]: induced cytokine production | relative potency of free drug, Lucia reporter ([3]; free drug, 24 h (48 h elsewhere in the source)): significantly more potent than (2′, 3′)-Rp,Rpc-diAMPS disodium (Compound B) | IFNγ in plasma ([4]; 3 h after treatment): < 3.2 pg/mL | IL1β in plasma ([4]; 3 h after treatment): 0.7 pg/mL | IL12p70 in plasma ([4]; 3 h after treatment): 174 pg/mL | IL-6 in plasma ([4]; 3 h after treatment): 95.7 pg/mL | IL-10 in plasma ([4]; 3 h after treatment): 48.8 pg/mL | IP10 in plasma ([4]; 3 h after treatment): 703 pg/mL | MCP-1 in plasma ([4]; 3 h after treatment): 168 pg/mL | MIP1α in plasma ([4]; 3 h after treatment): 55.6 pg/mL | MIP1β in plasma ([4]; 3 h after treatment): 362 pg/mL | RANTES in plasma ([4]; 3 h after treatment): 10.6 | TNFa in plasma ([4]; 3 h after treatment): 3.6 | IFNγ in plasma ([4]; 6 h after treatment): 0.2 pg/mL | IL1β in plasma ([4]; 6 h after treatment): 1.5 pg/mL | IL12p70 in plasma ([4]; 6 h after treatment): < 3.2 pg/mL | IL-6 in plasma ([4]; 6 h after treatment): 6.8 pg/mL | IL-10 in plasma ([4]; 6 h after treatment): 0.8 pg/mL | IP10 in plasma ([4]; 6 h after treatment): 3390 pg/mL | MCP-1 in plasma ([4]; 6 h after treatment): 796 pg/mL | MIP1α in plasma ([4]; 6 h after treatment): 38.9 pg/mL | MIP1β in plasma ([4]; 6 h after treatment): 169 pg/mL | RANTES in plasma ([4]; 6 h after treatment): 18.4 | TNFa in plasma ([4]; 6 h after treatment): 1.9 | IFNγ in plasma ([4]; 24 h after treatment): < 3.2 pg/mL | IL1β in plasma ([4]; 24 h after treatment): 0.8 pg/mL | IL12p70 in plasma ([4]; 24 h after treatment): 140 pg/mL | IL-6 in plasma ([4]; 24 h after treatment): 13.5 pg/mL | IL-10 in plasma ([4]; 24 h after treatment): 34.6 pg/mL | IP10 in plasma ([4]; 24 h after treatment): 551 pg/mL | MCP-1 in plasma ([4]; 24 h after treatment): 333 pg/mL | MIP1α in plasma ([4]; 24 h after treatment): 69.9 pg/mL | MIP1β in plasma ([4]; 24 h after treatment): 70.7 pg/mL | RANTES in plasma ([4]; 24 h after treatment): 15.6 | TNFa in plasma ([4]; 24 h after treatment): 2.0 | systemic pro-inflammatory cytokine (IL-6 and TNF) production ([4]; plasma): induced very little pro-inflammatory cytokine (IL-6 and TNF) production | tumor growth / anti-tumor activity ([5]; Renca, q7dx3): some tumor growth delay was observed | average weight loss ([5]; after the 1st and 2nd dose of the treatment): < −5%

CCn1nc(C)cc1C(=O)Nc1nc2cc(C(N)=O)cc(OC)c2n1C/C=C/Cn1c(NC(=O)c2cc(C)nn2CC)nc2cc(C(N)=O)cc(OCCCN(C)C(=O)CCN3C(=O)CC(SC[C@H](N)C(=O)O)C3=O)c21 (stereo partly drawn) [compound 16]
IC50 [6]: > 1000 nM | IC50 [7]: 29 nM | IC50 [8]: > 1000 nM | IC50 [9]: 7 nM | IC50 [10]: > 1000 nM | IC50 [11]: > 1000 nM | EC50 ([3]; small molecules, 24 h, >10,000 nM = minimal activity up to 10 μM, some values average of multiple experiments, read-out: EC50, Lucia reporter signal): 52 nM | IC50 [12]: > 1000 nM | IC50 [13]: 4 nM | IC50 [14]: > 1000 nM | IC50 [15]: 27 nM | IC50 [16]: > 1000 nM
